Experimental data from patent publication US6506788B1, “N-linked urea or carbamate of heterocyclic thioesters for vision and memory disorders” (GPI Nil Holdings, Inc., priority 1998, dated 2003).
Where two headings read alike, the source gives them in different places. Marks after values point to notes of the source that are not given here.

Tests used:
[1] = test system: retinal ganglion cell axons; experiment: Protection of retinal ganglion cell axons from degeneration following optic nerve transection (Table V); type: in vivo; settings: ± SEM
Text: Efficacy of representative compounds from different immunophilin ligand series in protecting retinal ganglion cell axons from degeneration following optic nerve transection is set forth in Table V.
Efficacy of representative compounds from different immunophilin ligand series in protecting retinal ganglion cell axons from degeneration following optic nerve transection

FKBP12 = FKBP12 (Homo sapiens, UniProt P62942); experiment: Ki test procedure: inhibition of peptidyl-prolyl isomerase (rotamase) activity, chymotrypsin-coupled assay; type: biochemical
Text: The inhibition of the prolyl peptidyl cis-trans isomerase activity of FKBP may be measured as an indicator of this affinity.
Inhibition of the peptidyl-prolyl isomerase (rotamase) activity of the compounds used in the inventive methods and pharmaceutical compositions can be evaluated by known methods described in the literature (Harding et al., Nature, 1989, 341:758-760; Holt et al. J. Am. Chem. Soc., 115:9923-9938).
The cis-trans isomerization of an alanine-proline bond in a model substrate, N-succinyl-Ala-Ala-Pro-Phe-p-nitroanilide, is monitored spectrophotometrically in a chymotrypsin-coupled assay, which releases para-nitroanilide from the trans form of the substrate. The inhibition of this reaction caused by the addition of different concentrations of inhibitor is determined, and the data is analyzed as a change in first-order rate constant as a function of inhibitor concentration to yield the apparent Ki values.
In a plastic cuvette are added […] of ice cold assay buffer (25 mM HEPES, pH 7.8, 100 mM NaCl), 10 mL of FKBP (2.5 mM in 10 mM Tris-Cl pH 7.5, 100 mM NaCl, 1 mM dithiothreitol), 25 mL of chymotrypsin (50 mg/ml in 1 mM HCl) and […] of test compound at various concentrations in dimethyl sulfoxide. The reaction is initiated by the addition of 5 mL of substrate (succinyl-Ala-Phe-Pro-Phe-para-nitroanilide, 5 mg/mL in 2.35 mM LiCl in trifluoroethanol).
The absorbance at 390 nm versus time is monitored for 90 seconds using a spectrophotometer and the rate constants are determined from the absorbance versus time data files.

[2] = Clearance (Table V comments, no method given); type: in vitro ADME
retina = experiment: Streptozotocin induced diabetes: retinal neovascularization and neuron loss; type: in vivo; settings: 28 day treatment beginning 8 weeks after onset of diabetes
[3] = test system: retinal ganglion cells and optic nerve; experiment: Retinal ischemia (intraocular pressure raised above arterial blood pressure), examined 28 days later; type: in vivo, rats; settings: toluidine blue staining; 28 days after 1 hour retinal ischemia
Text: Retinal ganglion cells were retrogradely labeled in adult rats by bilateral injection of fluorogold in their lateral geniculate nuclei. Labeled ganglion cells in the normal rat retina appear as white profiles against the dark background (FIG. 1A). Complete retinal ischemia was produced by infusing normal saline solution into the retinal vitreous cavity of each eye until the intraocular pressure exceeded arterial blood pressure. 28 days after the ischemic episode extensive degeneration of retinal ganglion cell was evidenced by massive reduction in the density of fluorogold labeled cells (FIG. 1B).
Optic nerves from vehicle treated cases examined 28 days after a 1 hour retinal ischemic episode are characterized by a decreased density of optic nerve axons and the appearance of numerous degenerating myelin figures (bright white filled circles).

retinal ganglion cells = experiment: Example 16: optic nerve transection, 28 days treatment, sacrifice at 90 days; type: in vivo, Sprague Dawley rats; settings: 10 mg/kg/day s.c. for 28 days; 90 days after transection
Text: Transection of the mammalian optic nerve results in a brief period of abortive regeneration, but the majority of axotomized neurons die and the axons from many persisting ganglion cells die back beyond the optic nerve head.

[4] = test system: retinal ganglion cells and optic nerve axons; experiment: In vivo retinal ganglion cell and optic nerve axon tests: optic nerve transection, 14 or 28 day treatment, sacrifice at 90 days; parameters: species or system Sprague Dawley rats; settings: for ON head area (% sham) / ON Axon density / pattern of myelin degeneration, proximal stump (myelin basic protein immunohistochemistry) / pattern of myelin labeling and degenerating myelin figures, distal stump: 90 days after transection; for ON Axon density: RT97 labeled axons in 200 μm × 200 μm region; for increased ON axon density: adjusted for optic nerve diameter; for Distat optic nerve: shrinkage of cross sectional area: cross sectional area compared to sham control
Text: All eyes and optic nerves stumps were removed.

aged mice = experiment: Morris watermaze spatial learning and memory in aged rodents; type: in vivo, C57BL/6N-Nia mice; settings: 10 mg/kg daily
Text: The Morris watermaze is widely used for assessing spatial memory formation and retention in experimental animals. The test depends on the animal's ability to utilize spatial visual information in order to locate a submerged escape platform in a water tank. It is important that the tank itself be as devoid of specific visual features as possible—thus, it is always circular in shape, the sides are kept smooth and in uniform dull colors, and the water is rendered opaque with nontoxic watercolor pigment or powdered milk. This is to ensure that the animal navigates only by the use of more distant visual cues, or by the use of intra-maze cues specifically provided by the experimenter. The animals' path, speed, and swim time are tracked with a ceiling camera for later computerized analysis. Over the course of several successive trials, spatial learning can therefore be defined as a drop of distance swum, or time elapsed, from placement in the tank until escape onto the invisible platform. The procedure involved using three-month old (young) and 18-19 month old male C57BL/6N-Nia (aged) mice which habituated to the well known and conventional Morris watermaze during a 4 trials/day, 3-4 day visible platform training phase. […] Swim Distances (cm) were analyzed in a 7×5 ANOVA including Groups and Blocks (1-5) as factors in the analysis, treating Blocks as a repeated measure.

[5] = apparent Ki, rotamase inhibition, read-out: Ki
[6] = Table V comments, read-out: Ki rotomase

FKBP12, sequence (P62942 whole entry, species assumed): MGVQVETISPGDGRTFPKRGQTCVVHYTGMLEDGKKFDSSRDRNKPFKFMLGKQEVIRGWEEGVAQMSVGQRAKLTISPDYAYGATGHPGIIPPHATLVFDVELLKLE

For `O=C(OCCCc1cccnc1)[C@@H]1CCCN1C(=S)NC1CCCCC1` [I], the “RT97-RGC axon density 11 days after ON transection (36 ON axon rescued)” value (“RT97-RGC axon density 11 days” for short) [1] was 23.8% ±5.3 SEM.

For `O=C(SC(CCc1ccccc1)CCc1ccccc1)C1CCCCN1C(=S)NC1CCCCC1` (stereo not shown) [Compound 15], the Ki (FKBP12; [5]) was 1 to 50 nM.

`COc1ccc(CCCSC(=O)C2CCCCN2C(=O)NC2CCCCC2)cc1` (stereo not shown) [Compound 16] showed a Ki (FKBP12; [5]) of 51 to 200 nM.

With `CCC(C)(C)C(=O)C(=O)N1CCCC[C@H]1C(N)=O` [H] the “RT97-RGC axon density 11 days” value [1] was 30.3% ±8.0% SEM.

Compound `CCC(C)CNC(=O)N1CCC[C@H]1C(=O)SCCCc1cccnc1` (stereo partly drawn) [Compound 1, 3-(3-Pyridyl)-1-propylmercaptyl 2S-1-[(2-methylbutyl)carbamoyl]pyrrolidine-2-carboxylate] has a Ki (FKBP12; [5]) of 1 to 50 nM.

In the case of `CCC(C)(C)C(=O)C(=O)N1CCC[C@H]1C(=O)SCCC(c1ccccc1)c1ccccc1` [M], the “RT97-RGC axon density 11 days” value [1] is reported as −6.3% +3.9% SEM.

In the case of `CCC(C)(C)C(=O)C(=O)N1CCCC1C(=O)O` (stereo not shown) [L], the “RT97-RGC axon density 11 days” value [1] is reported as 7.8% ±3.0% SEM and the Clearance [2] is reported as 5.2 µL/min.

For `CCC(C)(C)C(=O)C(=O)N1CCC[C@H]1C(=O)CCCCc1cccnc1` [J], the “RT97-RGC axon density 11 days” value [1] was 15.8% ±4.8% SEM.

`O=C(SCCCc1cccnc1)C1CCCN1C(=O)NC1CCCCC1` (stereo not shown) [Compound 6] showed a Ki (FKBP12; [5]) of 201 to 500 nM.

In the case of `CCC(C)(C)C(=O)C(=O)N1CCCC[C@H]1C(=O)SCCC(c1ccccc1)c1ccccc1` [K], the “RT97-RGC axon density 11 days” value [1] is reported as 13.0% ±4.2% SEM.

With `O=C(OCCCCc1ccccc1)[C@@H]1CCCCN1S(=O)(=O)Cc1ccccc1` [D] the “RT97-RGC axon density 11 days” value [1] was 58.4% ±6.4% SEM.

In the case of `CCC(C)(C)C(=O)C(=O)N1CCCC[C@H]1C(=O)O` [G], the “RT97-RGC axon density 11 days” value [1] is reported as 34.0% ±4.8% SEM.

Compound `CCC(C)(C)NC(=O)N1CCCC1C(=O)SCCc1ccccc1` (stereo not shown) [Compound 4] has a Ki (FKBP12; [5]) of 51 to 200 nM.

`O=C(SCCCc1ccccc1)C1CCCCN1C(=O)Nc1ccccc1` (stereo not shown) [Compound 12] showed a Ki (FKBP12; [5]) of 1 to 50 nM.

For `O=C(SCCCc1ccccc1)C1CCCN1C(=O)NC12CC3CC(CC(C3)C1)C2` (stereo not shown) [B], the Ki (FKBP12; [6]) was 149 nM and the “RT97-RGC axon density 11 days” value [1] was 100.0% ±5.2% SEM.

In the case of `O=C(SCCCc1ccccc1)C1CCCN1S(=O)(=O)Cc1ccccc1` (stereo not shown) [C], the Ki (FKBP12; [6]) is reported as 107 nM, the “RT97-RGC axon density 11 days” value [1] is reported as 60.4% ±3.1% SEM and the Clearance [2] is reported as 31.1 µL/min.

For `CCC(C)(C)C(=O)C(=O)N1CCS[C@H]1C(=O)OCCCc1cccnc1` [F], the “RT97-RGC axon density 11 days” value [1] was 55.1% ±5.9% SEM.

With `CCC(C)(C)C(=O)C(=O)N1CCC[C@H]1C(=O)OCCCc1cccnc1` [GPI 1046, 3-(3-pyridyl)-1-propyl (2s)-1-(3,3-dimethyl-1,2-dioxopentyl)-2-pyrrolidinecarboxylate] the “neuronal loss in the ONL” value (retina) was “did not appear to protect against neuronal loss”, the “loss of neurons in the INL and GCL” value (retina; vs streptozotocin/vehicle controls) was “appeared to decrease the loss of neurons” and the “density of degenerating myelin figures in optic nerve” value [3] was “dramatically decreased”. For the same compound, the “preservation of axons in the proximal stump (RT97 neurofilament)” value (retinal ganglion cells) was “preserved the axons of virtually all protected neurons”, the “ON head area (% sham)” value ([4]; ONT/14 days treatment) was 76% and the “ON Axon density” value ([4]; ONT/14 days treatment) was 569. The “increased ON axon density” value ([4]; ONT/14 days treatment) was 1.5X, the “Distat optic nerve: shrinkage of cross sectional area” value ([4]; ONT/14 days treatment) was “did not protect against shrinkage of the distal stump” and the “Distat optic nerve myclin basic protein Density (myelin level)” value ([4]; ONT/14 days treatment, cross sectional area multiplied by myelin density) was “slightly increase the density of myelin”. For the same compound, the “ON head area (% sham)” value ([4]; ONT/28 days treatment) was 95%*, the “ON Axon density” value ([4]; ONT/28 days treatment) was “significant increase” and the “increased ON axon density” value ([4]; ONT/28 days treatment) was 5.0 X. The “Distat optic nerve: shrinkage of cross sectional area” value ([4]; ONT/28 days treatment) was “prevented cross sectional shrinkage”, the “pattern of myelin degeneration, proximal stump (myelin basic protein immunohistochemistry)” value ([4]; first 14 days treatment) was “did not alter the pattern of myelin degeneration” and the “pattern of myelin labeling and degenerating myelin figures, distal stump” value ([4]; first 14 days treatment) was “density of degenerating myelin figures remained high”. The “pattern of myelin degeneration, proximal stump (myelin basic protein immunohistochemistry)” value ([4]; first 28 days treatment) was “dramatic preservation of the fascicular staining pattern”, the “pattern of myelin labeling and degenerating myelin figures, distal stump” value ([4]; first 28 days treatment) was “dramatic protection of the fascicular pattern of myelin labeling” and the “difference between young and aged impaired treated groups during retention phase” value (aged mice; F1.69=3.09, P=0.08) was “no longer any statistically significant difference”. For the same compound, the “spatial memory performance (swim distance, retention testing)” value (aged mice; aged impaired mice, retention testing after 3 weeks of dosing) was “significantly enhanced spatial memory performance”.

For “3-(3-pyridyl)-1-propyl (2s)-1-(3,3-dimethyl-1,2-dioxopentyl)-2-pyrrolidinecarboxylate [GPI 1046]”, the Ki (FKBP12; [6]) was 7.5 nM, the “RT97-RGC axon density 11 days” value [1] was 60.5% ±3.9 SEM and the Clearance [2] was 63.8 µL/min.

`O=C(SCCCc1cccnc1)[C@@H]1CCCN1C(=S)NC1CCCCC1` [Compound 7, 3-(3-pyridyl)-1-propylmercaptyl 2S-1-[(cyclohexyl)thiocarbamoyl]-pyrrolidine-2-carboxylate] gave a Ki (FKBP12; [5]) of 51 to 200 nM.

In the case of `CCC(C)(C)NC(=O)N1CCC[C@H]1C(=O)SCCCc1cccnc1` [Compound 2], the Ki (FKBP12; [5]) is reported as 51 to 200 nM.

In the case of `CCC(C)(C)NC(=O)N1CCCCC1C(=O)SCCCc1ccccc1` (stereo not shown) [Compound 11], the Ki (FKBP12; [5]) is reported as 51 to 200 nM.
